Test results from the supplement of paper PMC10307832.

Experiments:
Test in all cases: relative viability (nuclei count vs DMSO), 5 days (fraction); higher = more cells survive
Quizartinib + Tozasertib = compound: CC(C)(C)c1cc(NC(=O)Nc2ccc(-c3cn4c(n3)sc3cc(OCCN5CCOCC5)ccc34)cc2)no1 [Quizartinib] + Cc1cc(Nc2cc(N3CCN(C)CC3)nc(Sc3ccc(NC(=O)C4CC4)cc3)n2)n[nH]1 [Tozasertib] (partner 0.1 µM)
Method in brief: (§1)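 Medians of duplicate plates are given as relative viability. That measure is the nuclei count in treated wells divided by the count in vehicle wells. Counts were taken on 4× images of lung cancer cell lines in 1536-well plates, 5 days after pin-tool dosing the day after seeding with one drug alone or a fixed anchor-drug dose plus five library-drug doses (not always all listed) in √10 steps.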

YM155 + Palbociclib = compound: COCC[n+]1c2c(n(Cc3cnccn3)c1C)C(=O)c1ccccc1C2=O [YM155] + CC(=O)c1c(C)c2cnc(Nc3ccc(N4CCNCC4)cn3)nc2n(C2CCCC2)c1=O [Palbociclib] (partner 0.5 µM)
Method in brief: as §1

YM155 + Navitoclax = compound: COCC[n+]1c2c(n(Cc3cnccn3)c1C)C(=O)c1ccccc1C2=O [YM155] + CC1(C)CCC(c2ccc(Cl)cc2)=C(CN2CCN(c3ccc(C(=O)NS(=O)(=O)c4ccc(N[C@H](CCN5CCOCC5)CSc5ccccc5)c(S(=O)(=O)C(F)(F)F)c4)cc3)CC2)C1 [Navitoclax] (partner 0.5 µM)
Method in brief: as §1

YM155 + Linsitinib = compound: COCC[n+]1c2c(n(Cc3cnccn3)c1C)C(=O)c1ccccc1C2=O [YM155] + C[C@]1(O)C[C@@H](c2nc(-c3ccc4ccc(-c5ccccc5)nc4c3)c3c(N)nccn32)C1 [Linsitinib] (partner 1 µM)
Method in brief: as §1

Cell Line SK-MES-1 has a relative viability (Quizartinib + Tozasertib; first compound 0.001 µM) of 0.852, a relative viability (Quizartinib + Tozasertib; first compound 0.003162 µM) of 0.904 and a relative viability (Quizartinib + Tozasertib; first compound 0.01 µM) of 0.864. The relative viability (Quizartinib + Tozasertib; first compound 0.1 µM) was 0.77, the relative viability (YM155 + Palbociclib; first compound 0.002 µM) was 0.312 and the relative viability (YM155 + Palbociclib; first compound 0.006325 µM) was 0.357. For the same cell line, the relative viability (YM155 + Palbociclib; first compound 0.02 µM) was 0.225, the relative viability (YM155 + Palbociclib; first compound 0.06325 µM) was 0.191 and the relative viability (YM155 + Navitoclax; first compound 0.002 µM) was 1.3. It also gave a relative viability (YM155 + Navitoclax; first compound 0.006325 µM) of 1.36, a relative viability (YM155 + Navitoclax; first compound 0.02 µM) of 1.28 and a relative viability (YM155 + Navitoclax; first compound 0.06325 µM) of 1.07. The relative viability (YM155 + Linsitinib; first compound 0.002 µM) was 1.12, the relative viability (YM155 + Linsitinib; first compound 0.006325 µM) was 1.07 and the relative viability (YM155 + Linsitinib; first compound 0.02 µM) was 1.12. For the same cell line, the relative viability (YM155 + Linsitinib; first compound 0.06325 µM) was 0.964.
SW 1573 gave a relative viability (Quizartinib + Tozasertib; first compound 0.001 µM) of 0.163, a relative viability (Quizartinib + Tozasertib; first compound 0.003162 µM) of 0.175 and a relative viability (Quizartinib + Tozasertib; first compound 0.01 µM) of 0.225. For the same cell line, the relative viability (Quizartinib + Tozasertib; first compound 0.1 µM) was 0.265, the relative viability (YM155 + Palbociclib; first compound 0.002 µM) was 0.415 and the relative viability (YM155 + Palbociclib; first compound 0.006325 µM) was 0.314. For the same cell line, the relative viability (YM155 + Palbociclib; first compound 0.02 µM) was 0.126, the relative viability (YM155 + Palbociclib; first compound 0.06325 µM) was 0.0609 and the relative viability (YM155 + Navitoclax; first compound 0.002 µM) was 1.05. For the same cell line, the relative viability (YM155 + Navitoclax; first compound 0.006325 µM) was 0.959, the relative viability (YM155 + Navitoclax; first compound 0.02 µM) was 1.04 and the relative viability (YM155 + Navitoclax; first compound 0.06325 µM) was 0.555. The relative viability (YM155 + Linsitinib; first compound 0.002 µM) was 0.88, the relative viability (YM155 + Linsitinib; first compound 0.006325 µM) was 0.939 and the relative viability (YM155 + Linsitinib; first compound 0.02 µM) was 0.769. The relative viability (YM155 + Linsitinib; first compound 0.06325 µM) was 0.686.
Work on UMC-11 yielded a relative viability (Quizartinib + Tozasertib; first compound 0.003162 µM) of 0.194, a relative viability (Quizartinib + Tozasertib; first compound 0.01 µM) of 0.204 and a relative viability (Quizartinib + Tozasertib; first compound 0.03162 µM) of 0.223. The relative viability (Quizartinib + Tozasertib; first compound 0.1 µM) was 0.222, the relative viability (YM155 + Palbociclib; first compound 0.002 µM) was 0.327 and the relative viability (YM155 + Palbociclib; first compound 0.006325 µM) was 0.356. It also gave a relative viability (YM155 + Palbociclib; first compound 0.02 µM) of 0.336, a relative viability (YM155 + Palbociclib; first compound 0.06325 µM) of 0.33 and a relative viability (YM155 + Navitoclax; first compound 0.002 µM) of 0.293. The relative viability (YM155 + Navitoclax; first compound 0.006325 µM) was 0.332, the relative viability (YM155 + Navitoclax; first compound 0.02 µM) was 0.29 and the relative viability (YM155 + Navitoclax; first compound 0.06325 µM) was 0.375. For the same cell line, the relative viability (YM155 + Linsitinib; first compound 0.002 µM) was 0.993, the relative viability (YM155 + Linsitinib; first compound 0.006325 µM) was 1.05 and the relative viability (YM155 + Linsitinib; first compound 0.02 µM) was 1.02. For the same cell line, the relative viability (YM155 + Linsitinib; first compound 0.06325 µM) was 1.03.
